As usually defined, the IC50 is the concentration needed to halve the response being measured. High values mean lower potency, low ones higher potency.

The structures appear in SMILES notation.

Sequence of ERK2 enzyme (P28482 whole entry): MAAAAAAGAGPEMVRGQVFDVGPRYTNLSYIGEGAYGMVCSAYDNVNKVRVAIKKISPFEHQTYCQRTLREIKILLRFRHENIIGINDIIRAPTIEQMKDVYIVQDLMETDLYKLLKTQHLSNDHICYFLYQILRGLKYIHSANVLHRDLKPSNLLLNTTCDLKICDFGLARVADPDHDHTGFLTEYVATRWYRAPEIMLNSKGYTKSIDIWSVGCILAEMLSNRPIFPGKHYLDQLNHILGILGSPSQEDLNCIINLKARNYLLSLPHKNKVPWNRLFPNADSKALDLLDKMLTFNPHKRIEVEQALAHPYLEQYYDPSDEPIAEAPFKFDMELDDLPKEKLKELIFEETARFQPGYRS

The first assay concerns the target ERK2 enzyme (Homo sapiens (Human), UniProt P28482). The experiment in a line: Inhibition assay of ERK (Z'-LYTE kinase assay, Ser/Thr 3 peptide substrate). The format is biochemical. To be noted: In vitro ERK2 enzyme, 100 μM ATP. As for the experimental part: The inhibition of ERK activity by the compounds disclosed herein was determined using the Z′-LYTE kinase assay kit (Life Technologies) with a Ser/Thr 3 peptide substrate (Life Technologies) according to manufacturers' instructions. […] The IC50 values for the compounds were determined with 3-fold serial dilutions in duplicate. […] The final DMSO concentration in the assay was 1%. Final reaction volume was 20 μL/well in 384-well plates. Kinase reactions were conducted or 1 hour followed by the assay development reaction (1 hour) in a 20 ul/well in a 384 well plate format.
`O=C1Nc2cc3[nH]nc(-c4ccncc4)c3cc2CN1Cc1ccccc1` [Compound 1, 6-benzyl-3-(pyridin-4-yl)-1,5,6,8-tetrahydro-7H-pyrazolo[4,3-g]quinazolin-7-one] registered an IC50 of less than 50 nM.

In turn, `Cc1cc(-c2n[nH]c3cc4c(cc23)CN([C@H](C)c2ccccc2)C(=O)N4)ccn1` [Compound 2, (R)-3-(2-methylpyridin-4-yl)-6-(1-phenylethyl)-5,6-dihydro-1H-pyrazolo[4,3-g]quinazolin-7(8H)-one] gave a half-inhibitory concentration (IC50) of less than 50 nM.

Turning to `O=C1Nc2cc3[nH]nc(-c4ccncc4)c3cc2CN1Cc1cccc(Cl)c1` [Compound 3], the IC50 was less than 50 nM.

As to `Cc1cc(-c2n[nH]c3cc4c(cc23)CN(Cc2cccc(Cl)c2)C(=O)N4)ccn1` [Compound 4], the IC50 was less than 50 nM.

The compound `Cc1cc(-c2n[nH]c3cc4c(cc23)CN([C@H](C)c2ccc(F)cc2)C(=O)N4)ccn1` [Compound 5] displayed an IC50 of 50 to 250 nM.

As for `Cc1cc(-c2n[nH]c3cc4c(cc23)CN(Cc2cc(F)cc(F)c2)C(=O)N4)ccn1` [Compound 7], the IC50 was less than 50 nM.

On to `Cc1cc(-c2n[nH]c3cc4c(cc23)CN(Cc2ccc(F)c(Cl)c2)C(=O)N4)ccn1` [Compound 8], for which the half-inhibitory concentration (IC50) is less than 50 nM.

`COc1ncccc1CN1Cc2cc3c(-c4ccnc(C)c4)n[nH]c3cc2NC1=O` [Compound 9] registered an IC50 of less than 50 nM.

`COc1ccc(CN2Cc3cc4c(-c5ccnc(C)c5)n[nH]c4cc3NC2=O)cc1` [Compound 10] had an IC50 of less than 50 nM.

On to `Cc1cc(-c2n[nH]c3cc4c(cc23)CN(Cc2ccc(F)cc2F)C(=O)N4)ccn1` [Compound 11], for which the IC50 was less than 50 nM.

`Cc1cc(-c2n[nH]c3cc4c(cc23)CN(Cc2ccc(C(F)(F)F)cc2)C(=O)N4)ccn1` [Compound 12] registered a concentration for half-maximal inhibition (IC50) of 50 to 250 nM.

With `Cc1cc(-c2n[nH]c3cc4c(cc23)CN(Cc2ccc(F)c(F)c2)C(=O)N4)ccn1` [Compound 13], the IC50 is less than 50 nM.

Consider `Cc1cc(-c2n[nH]c3cc4c(cc23)CN(Cc2ccc(Cl)cc2)C(=O)N4)ccn1` [Compound 14], for which the concentration for half-maximal inhibition (IC50) was less than 50 nM.

Take `Cc1cc(-c2n[nH]c3cc4[nH]c(=O)n(Cc5ccc(F)c(Cl)c5)c(=O)c4cc23)ccn1` [Compound 15]: the 50% inhibitory concentration (IC50) was in the range of 50 to 250 nM.

`Cc1cc(-c2n[nH]c3cc4c(cc23)CN([C@H](C)c2ccc(Cl)cc2)C(=O)N4)ccn1` [Compound 16] registered an IC50 of less than 50 nM.

In turn, `Cc1cc(-c2n[nH]c3cc4c(cc23)CN(C2(c3ccc(F)cc3)CC2)C(=O)N4)ccn1` [Compound 17] registered an IC50 of 50 to 250 nM.

For `Cc1cc(-c2n[nH]c3cc4c(cc23)CN(CCc2ccc(F)cc2)C(=O)N4)ccn1` [Compound 18], the half-maximal inhibitory concentration (IC50) was less than 50 nM.

`Cc1cc(-c2n[nH]c3cc4[nH]c(=O)n(Cc5ccccc5)c4cc23)ccn1` [Compound 19] registered an IC50 of less than 50 nM.

On to `Cc1cc(-c2n[nH]c3cc4[nH]c(=O)n(CCc5ccccc5)c4cc23)ccn1` [Compound 20], for which the IC50 lay in the range of 50 to 250 nM.

As to `Cc1cc(-c2n[nH]c3cc4[nH]c(=O)c(Cc5ccc(F)cc5)cc4cc23)ccn1` [Compound 21], the IC50 lay in the range of 50 to 250 nM.

Turning to `Cc1cc(-c2n[nH]c3cc4[nH]c(=O)c(C(C)c5ccccc5)cc4cc23)ccn1` (centres unmarked) [Compound 22], the concentration for half-maximal inhibition (IC50) was less than 50 nM.

In turn, `Cc1cc(-c2n[nH]c3cc4c(cc23)CN([C@H](C)c2ccc(C#N)cc2)C(=O)N4)ccn1` [Compound 23] registered a concentration for half-maximal inhibition (IC50) of less than 50 nM.

The compound `Cc1cc(-c2n[nH]c3cc4[nH]c(=O)n(Cc5cccc(Cl)c5)c(=O)c4cc23)ccn1` [Compound 24] came in with an IC50 of 50 to 250 nM.

As to `O=C1Nc2cc3[nH]nc(Br)c3cc2CN1Cc1cccc(Cl)c1` [Compound 25], the IC50 was 250 to 1000 nM.

In turn, `Cc1cc(-c2n[nH]c3cc4c(cc23)CN([C@H](CO)c2cccc(Cl)c2)C(=O)N4)ccn1` [Compound 26] had an IC50 of less than 50 nM.

Take `Cc1cc(-c2n[nH]c3cc4[nH]c(=O)n(Cc5ccccc5)c(=O)c4cc23)ccn1` [Compound 27]: the IC50 is less than 50 nM.

Consider `Cc1cc(-c2n[nH]c3cc4c(cc23)CN([C@@H](C)c2cccc(Cl)c2)C(=O)N4)ccn1` [Compound 28], for which the IC50 fell in the range of 50 to 250 nM.

Consider `O=C1Nc2cc3[nH]nc(Br)c3cc2CN1Cc1ccc(F)cc1` [Compound 29], for which the IC50 was in the range of 250 to 1000 nM.

For the compound `Cc1cc(-c2n[nH]c3cc4c(cc23)CN(Cc2ccc(F)cc2)C(=O)N4)ccn1` [Compound 30], the half-maximal inhibitory concentration (IC50) is less than 50 nM.

The compound `Cn1cc(-c2n[nH]c3cc4c(cc23)CN(Cc2ccc(F)c(Cl)c2)C(=O)N4)cn1` [Compound 31] showed an IC50 of less than 50 nM.

Take `Cc1cc(-c2n[nH]c3cc4c(cc23)CN([C@@H]2CCCNC2)C(=O)N4)ccn1` [Compound 32]: the IC50 fell in the range of 50 to 250 nM.

For the compound `Cc1cc(-c2n[nH]c3cc4c(cc23)CN([C@@H]2CCCN(C)C2)C(=O)N4)ccn1` [Compound 33], the IC50 was less than 50 nM.

For `Cc1cc(-c2n[nH]c3cc4c(cc23)CN(C2CCNCC2)C(=O)N4)ccn1` [Compound 34], the IC50 lay within 50 to 250 nM.

Turning to `Cc1cc(-c2n[nH]c3cc4c(cc23)CN([C@H](C)c2cccc(Cl)c2)C(=O)N4)ccn1` [Compound 35], the IC50 is less than 50 nM.

`COc1ccc(-c2n[nH]c3cc4c(cc23)CN(Cc2ccc(F)c(Cl)c2)C(=O)N4)cn1` [Compound 36] came in with an IC50 of less than 50 nM.

On to `COc1ncc(-c2n[nH]c3cc4c(cc23)CN(Cc2ccc(F)c(Cl)c2)C(=O)N4)cn1` [Compound 37], for which the IC50 was less than 50 nM.

Still in this assay, the particulars now being: In vitro, ERK2 enzyme 0.47 ng/μL, 100 μM ATP.
For `Cc1cc(-c2n[nH]c3cc4c(cc23)CN([C@@H]2CN(CC(F)(F)F)C[C@H]2C2CC2)C(=O)N4)ccn1` (mixture of isomers) [Compound 319], the IC50 lay within 50 to 250 nM.

With `Cc1cc(-c2n[nH]c3cc4c(cc23)CN([C@@H]2CN(CC(F)(F)F)C[C@H]2c2cccs2)C(=O)N4)ccn1` (mixture of isomers) [Compound 321], the IC50 is less than 50 nM.

In turn, `Cc1cc(-c2n[nH]c3cc4c(cc23)CN([C@@H]2CN(CC(F)(F)F)C[C@H]2C(C)C)C(=O)N4)ccn1` (mixture of isomers) [Compound 322] showed an IC50 of 50 to 250 nM.

On to `Cc1cc(-c2n[nH]c3cc4c(cc23)CN([C@@H]2CN(C)C[C@H]2C(C)C)C(=O)N4)ccn1` (mixture of isomers) [Compound 327], for which the 50% inhibitory concentration (IC50) is 250 to 1000 nM.

With `COc1ccc(-c2n[nH]c3cc4c(cc23)CN([C@@H]2CN(C)C[C@H]2c2ccccc2)C(=O)N4)cn1` (mixture of isomers) [Compound 353], the half-maximal inhibitory concentration (IC50) is less than 50 nM.

`COc1cc(-c2n[nH]c3cc4c(cc23)CN([C@@H]2CN(C)C[C@H]2c2ccccc2)C(=O)N4)ccn1` (mixture of isomers) [Compound 354] yielded an IC50 of less than 50 nM.

`COc1ncc(-c2n[nH]c3cc4c(cc23)CN([C@@H]2CN(C)C[C@H]2c2ccccc2)C(=O)N4)cn1` (mixture of isomers) [Compound 355] gave a 50% inhibitory concentration (IC50) of less than 50 nM.

For the compound `Cc1cc(-c2n[nH]c3cc4c(cc23)CN([C@@H]2CN(CCC#N)C[C@H]2c2ccccc2)C(=O)N4)ccn1` (mixture of isomers) [Compound 356], the 50% inhibitory concentration (IC50) was less than 50 nM.

Consider `Cc1cc(-c2n[nH]c3cc4c(cc23)CN([C@@H]2CN(C3CCOCC3)C[C@H]2c2ccccc2)C(=O)N4)ccn1` (mixture of isomers) [Compound 359], for which the concentration for half-maximal inhibition (IC50) was 50 to 250 nM.

On to `Cc1cc(-c2n[nH]c3cc4c(cc23)CN([C@@H]2CN(CC(F)F)C[C@H]2c2ccccc2)C(=O)N4)ccn1` (mixture of isomers) [Compound 362], for which the concentration for half-maximal inhibition (IC50) is less than 50 nM.

For `Cc1cc(-c2n[nH]c3cc4c(cc23)CN([C@@H]2CN(CC#N)C[C@H]2c2ccccc2)C(=O)N4)ccn1` (mixture of isomers) [Compound 366], the IC50 was less than 50 nM.

`Cc1cc(-c2n[nH]c3cc4c(cc23)CN([C@@H]2CN(CCO)C[C@H]2c2ccccc2)C(=O)N4)ccn1` (mixture of isomers) [Compound 376] returned a half-inhibitory concentration (IC50) of less than 50 nM.

Compound `Cc1cc(-c2n[nH]c3cc4c(cc23)CN([C@@H]2CN(CC(F)F)C[C@H]2c2ccccc2)C(=O)N4)cc(C)n1` (mixture of isomers) [Compound 379] registered an IC50 of less than 50 nM.

As for `Cc1cc(-c2n[nH]c3cc4c(cc23)CN([C@@H]2CNC[C@H]2c2ccccc2)C(=O)N4)ccn1` (racemic) [Compound 223], the concentration for half-maximal inhibition (IC50) was less than 50 nM.

As to `Cc1cc(-c2n[nH]c3cc4c(cc23)CN([C@@H]2CN(C)C[C@H]2c2ccccc2)C(=O)N4)ccn1` (racemic) [Compound 241], the 50% inhibitory concentration (IC50) is less than 50 nM.

For the compound `Cc1cc(-c2n[nH]c3cc4c(cc23)CN([C@@H]2CN(C)C[C@H]2c2ccccc2)C(=O)N4)cc(C)n1` (racemic) [Compound 248], the IC50 was less than 50 nM.

Take `CCN1C[C@@H](N2Cc3cc4c(-c5ccnc(C)c5)n[nH]c4cc3NC2=O)[C@H](c2ccccc2)C1` (racemic) [Compound 278]: the IC50 is less than 50 nM.

As for `Cc1cc(-c2n[nH]c3cc4c(cc23)CN([C@@H]2CN(C(C)C)C[C@H]2c2ccccc2)C(=O)N4)ccn1` (racemic) [Compound 279], the IC50 was less than 50 nM.

`Cc1cc(-c2n[nH]c3cc4c(cc23)CN([C@@H]2CN(CC(F)(F)F)C[C@H]2c2ccc(F)cc2)C(=O)N4)ccn1` (racemic) [Compound 300] returned an IC50 of less than 50 nM.

On to `Cc1cc(-c2n[nH]c3cc4c(cc23)CN([C@@H]2CN(CC(F)(F)F)C[C@H]2C)C(=O)N4)ccn1` (racemic) [Compound 302], for which the half-maximal inhibitory concentration (IC50) is less than 50 nM.

The compound `Cc1cc(-c2n[nH]c3cc4c(cc23)CN([C@@H]2CN(C)C[C@H]2c2ccc(F)cc2)C(=O)N4)cc(C)n1` (racemic) [Compound 305] returned a half-inhibitory concentration (IC50) of 50 to 250 nM.

Compound `Cc1cc(-c2n[nH]c3cc4c(cc23)CN([C@@H]2CN(C)C[C@H]2c2ccccc2F)C(=O)N4)cc(C)n1` (racemic) [Compound 306] gave an IC50 of less than 50 nM.

Turning to `Cc1cc(-c2n[nH]c3cc4c(cc23)CN([C@@H]2CN(CC(F)(F)F)C[C@H]2c2ccccc2F)C(=O)N4)ccn1` (racemic) [Compound 311], the IC50 lay within 50 to 250 nM.

The record behind these values is US9624228B2, “Inhibitors of ERK and methods of use” (KURA ONCOLOGY, INC., priority 2013, dated 2017).
